Measurements from US8461299B2, “Peptide capable of binding to immunoglobulin” (MMT Co., Ltd., priority 2007, dated 2013).

Legend:
[1] = tested on: binding between human C1q protein and alkaline phosphatase (ALP)-labeled human immunoglobulin (IgG); test: Inhibition of the binding between an immunoglobulin and C1q (C1q spotted on nitrocellulose membrane, ALP-labeled IgG detection); conditions: peptide 500 μg/ml; 400 ng human C1q per spot; ALP-labeled human IgG diluted 1000-fold; room temperature, one hour
Excerpt: It was investigated whether or not the 9 residue-peptide CKVPGLYYF (SEQ ID NO: 2) considered to be necessary for the binding between C1q and an immunoglobulin (IgG) inhibits the binding between C1q and an immunoglobulin. Peptide (R2) having the amino acid sequence of SEQ ID NO: 2, peptide (R1) having a shorter amino acid sequence than this peptide, PGLYYF (SEQ ID NO: 1), as well as peptide (R3) having the amino acid sequence SGKFTCKVPGLYYFT (SEQ ID NO: 3), peptide (R4) having the amino acid sequence FTCKVPGLYYFTYHA (SEQ ID NO: 4), peptide (R5) having the amino acid sequence STGKFTCKVPGLYYF (SEQ ID NO: 5), and peptide (R6) having the amino acid sequence CKVPGLYYFVYHASH (SEQ ID NO: 7), which contain the amino acid sequence indicated by SEQ ID NO: 2, were prepared by outsourcing to GL Biochem (Shanghai). Each peptide was dissolved in dimethylsulfoxide so as to reach a concentration of 10 mg/ml and stored.
Human C1q protein (manufactured by Carbiochem) was dissolved in 10 mM HEPES, 300 mM NaCl and 40% glycerol (pH 7.2) to prepare a 200 μg/ml human C1q protein solution.
The human C1q protein solution was spotted at 2 μl (400 ng) each onto a 5 mm×15 mm size nitrocellulose membrane (Hybond C; manufactured by Amersham), which was air-dried at room temperature for approximately one hour. The nitrocellulose membrane was soaked in TBS, incubated for 5 minutes, and blocked at room temperature for one hour using TBS (20 mM Tris-HCl pH 7.5, 150 mM NaCl) containing 5% blocking agent (Amersham ECL blocking reagent; manufactured by GE Healthcare). After a slight wash in TBS, the membrane was soaked in 20 μl of a mixed solution of alkaline phosphatase (ALP)-labeled human immunoglobulin (IgG) (manufactured by BECKMAN COULTER) diluted 1000-fold in TBS and each peptide so as to reach a concentration of 500 μg/ml, and let it react at room temperature for one hour. After a slight wash in TTBS solution (TBS added with Tween 20 to a final concentration of 0.05%), the membrane was washed in the same solution for 10 minutes, shaking three times.
After the nitrocellulose membrane was washed slightly in ALP coloring buffer (Tris-HCl containing 100 mM NaCl, 5 mM MgCl2, pH 9.5), it was soaked in 30 μl ALP coloring buffer containing BCIP/NBT solution (manufactured by Promega), and colored at room temperature for 10 minutes. Upon obtaining a staining image, the nitrocellulose membrane was soaked in a sufficient amount of distilled water to wash away the coloring buffer. After washing the nitrocellulose membrane was air-dried and the staining image was captured using Multi Gauge (FUJIFILM). […]

[2] = tested on: monoclonal antibody cocktail-induced arthritis mice; test: Arthritis inhibitory action on an arthritis-induced mouse-2 (clinical score, general state, body weight); type: in vivo; conditions: 10 mg/kg intraperitoneally twice daily from day 0 for 14 days
Protocol: The arthritis inhibitory action of the peptides indicated in Example 2 as R1, R2 and R5 was examined using monoclonal antibody cocktail-induced arthritis mice. An arthritis-inducing monoclonal antibody cocktail was intravenously administered at 2 mg/individual, and three days later, LPS was intraperitoneally administered at 50 μg/individual to the mice to induce arthritis. For each peptide, from the day the arthritis-inducing monoclonal antibody cocktail was administered (day 0), continuous administration was carried out at 10 mg/kg each, twice daily, for 14 days, and the arthritis inhibitory action was examined by clinical scoring. Note that the experiments were carried out by similar methods to Example 3 (1).
Based on the animal body weight, the required amount of each peptide was calculated. A solution was prepared with a 0.5% methyl cellulose solution so as to reach a concentration of 1 mg/ml, and was stored refrigerated.
With the day the arthritis-inducing monoclonal antibody cocktail was administered as day 0, the animal's body weight was measured on day 0, 3, 6, 9, 12 and 14 during the test period. General state observation was carried out daily.
The body weight was measured on the day prior to starting administration and randomly assigned with a grouping software so that the average body weight value of each group was approximately the equal. To twenty 7 week-old mice, an arthritis-inducing monoclonal antibody cocktail were intravenously administered at 2 mg/individual on day 0, and LPS was intraperitoneally administered at 50 μg/individual on day 3.
Each peptide solution was intraperitoneally administered twice daily, in the morning and in the afternoon, from day 0. As a control, 0.5% methyl cellulose solution was intraperitoneally administered twice daily from day 0. For administration, a syringe needle (26G, Terumo) and a syringe barrel (1.0 ml capacity, Terumo) were used. The dosage was 10 ml/kg. […]

[3] = tested on: Type III allergic (Arthus) reaction-induced rat; test: Type III allergic (Arthus) reaction model, Evans blue dye leakage; type: in vivo
Protocol: The test for peptide R1, R2 and R5 using 64 male rats of the Slc:Wistar strain, which were 7 weeks old was carried out in twice, i.e. for each administration method (intraperitoneal administration and tail vein administration). Acclimation was carried out by giving normal solid chow CRF-1 for 9 days or longer. The day prior to administration, the dorsal hair of the animal was shaved, and on the administration day, a solution of OVA+Evans blue dye mix was administered into the tail vein. Each peptide solution was administered, 30 minutes after administration of a solution of OVA+Evans blue dye mix if administered intraperitoneally or 50 minutes after if administered into the tail vein, respectively. Regarding intracutaneous administration of anti-OVA solution, the solution was intradermally administered to the dorsal region of the animal at a dose of 0.1 ml/site, 30 minutes after administration of the test substance in case of intraperitoneal administration or 10 minutes after in case of intravenous administration, to induce locally an Arthus reaction. Four hours after the induction, the animals were euthanized, the blood was removed thoroughly, and then the dorsal skin was removed. The Arthus reaction site on the removed skin was punched out, and the Evans blue dye was extracted from this skin overnight. The amount of dye leaked was quantified by measuring the absorbance for Evans blue dye with a spectrophotometer and using a calibration curve (note that, regarding experimental methods used in Example 4, reference should be made to H. Okamoto, Y. Iwahisa and M. Terasawa: Suppression of the Arthus reaction by Y-24180, a potent and specific antagonist of platelet-activating factor. Agents Actions, 35: 149-158 (1992)).
The predetermined weighed amounts of each peptide (peptides R1, R2 and R5) were dissolved in physiological saline respectively to obtain a 20 mg/ml solution. A 2 mg/ml solution was prepared by diluting 10-fold a 20 mg/mL solutions with physiological saline. 5 mg/ml solutions were prepared by dissolving each peptide in predetermined weighed amounts in physiological saline to obtain preparation solutions.
A solution of OVA+Evans blue dye mix was administered into the tail vein at 2 ml/kg. Each peptide solution was administered, 30 minutes after administration of the solution of OVA+Evans blue dye mix if administered intraperitoneally or 50 minutes after if administered into the tail vein, respectively. Regarding intracutaneous administration of anti-OVA solution, the solution was intradermally administered to the dorsal region of the animal at a dose of 0.1 ml/site, 30 minutes after administration of the test substance in case of intraperitoneal administration or 10 minutes after in case of intravenous administration, to induce locally an Arthus reaction. Intracutaneous administration was such that there were two PBS sites and two ant-OVA solution sites per animal. Four hours after the induction, the animals were euthanized by decapitation under ether anesthesia, the blood was removed thoroughly, and then the dorsal skin was removed. […]
The skin strip that was punched out with a punch was slit at several locations, soaked in 2 ml of dye extraction solution, and shaken and agitated for 10 minutes. […] The amount of dye leaked was calculated from the dye amount calibration curve.
The group mean values (mean)±standard deviation (SD) were calculated for the body weight measurement values and the amounts of dye leaked. […]

[4] = tested on: monoclonal antibody cocktail-induced arthritis mice (BALB/c Cr Slc (SPF)); test: Arthritis inhibitory action on an arthritis-induced mouse-1 (clinical score); type: in vivo
Protocol: Using monoclonal antibody cocktail-induced arthritis mice (BALB/c Cr Slc (SPF)), the arthritis inhibitory action of the peptide indicated as R5 in Example 2 was examined. Arthritis was induced by intravenous administration of 2 mg/individual of an arthritis-inducing monoclonal antibody cocktail, followed by intraperitoneal administration of 50 μg/individual of Lipopolysaccharide (LPS) three days later. From the day following LPS administration (day 4) until day 14, 10 mg/kg of peptide. R5 was intraperitoneally administered once daily or twice daily. The positive control agent methotrexate was orally administered once daily at 0.1 mg/kg from day 4. The clinical score of the extremities was measured on even days from day 0 to day 14. Under anesthesia, blood was removed with heparin-containing physiological saline, ice-cold 4% paraformaldehyde solution was continuously injected to perfusion-fix the whole body. After perfusion-fixation subsequent, both hind limbs knee joints (the center of the femur and the center of the tibia were cut; skin and muscles were removed) and heel joints (from the center of the tibia to the toe tips) were excised and further immersion-fixed with 4% paraformaldehyde solution overnight (4° C.). Thereafter, both knee and heel joints were transferred to 50 mM PBS (4° C.), then soft x-ray radiography of the heel articulations were taken from two directions (internal side direction and upper side direction).
Based on the animal body weight, the required amount was calculated for the peptide. A peptide solution was prepared with a 0.5% methyl cellulose solution so as to reach a concentration of 1 mg/ml, and the prepared peptide solution was stored refrigerated. […]
With the day the arthritis-inducing monoclonal antibody cocktail was administered as day 0, the animal's body weight was measured on day 0, 3, 6, 9, 12 and 14 during the test period. […]

[5] = intraperitoneal administration, 10 mg/kg or 100 mg/kg
[6] = tail vein administration, 10 mg/kg

Substance | inhibition of the binding between C1q and an immunoglobulin (IgG) [1] | arthritis inhibitory action (clinical score) [2] | inhibitory action on immune-complex disease (amount of dye leaked) [3, 5] | inhibitory action on immune-complex disease (amount of dye leaked) [3, 6] | arthritis inhibition (clinical score) ([4]; 10 mg/kg intraperitoneally once daily or twice daily, day 4 until day 14) | difference in effectiveness between once daily administration and twice daily administration ([4]; 10 mg/kg intraperitoneally, day 4 until day 14) | level of arthritis inhibition compared with methotrexate ([4]; peptide 10 mg/kg intraperitoneally, methotrexate 0.1 mg/kg orally once daily from day 4)
CKAPGLYYF (Immunoglobulin binding peptide) [R10] | inhibit | – | – | – | – | – | –
CKVPGLYYF (Immunoglobulin binding peptide) [R2] | inhibited | Arthritis inhibitory action was observed | clear and sufficient inhibitory action | clear and sufficient inhibitory action | – | – | –
PGLYYF (Immunoglobulin binding peptide) [R1] | inhibited | Arthritis inhibitory action was observed | clear and sufficient inhibitory action | clear and sufficient inhibitory action | – | – | –
STAKFTCKVPGLYYF (Immunoglobulin binding peptide) [R11] | inhibit | – | – | – | – | – | –
STGKFTCKVPGLYYF (Immunoglobulin binding peptide) [R5] | – | Arthritis inhibitory action was observed | clear and sufficient inhibitory action | – | an effect on arthritis inhibition was observed | no significant difference | higher than that of methotrexate
